Results from US20240109873A1, “ANTAGONISTS OF THE MUSCARINIC ACETYLCHOLINE RECEPTOR M4” (Vanderbilt University, priority 2020, published 2024).
pIC50: −log10 of the molar value.

Target: T1, human mAChR M4 (Homo sapiens, UniProt P08173)
T1 construct: expressed in transfected cells; host or cells: CHO-K1 (ATCC), co-transfected with chimeric G protein Gqi5
T1 sequence (P08173 1-479): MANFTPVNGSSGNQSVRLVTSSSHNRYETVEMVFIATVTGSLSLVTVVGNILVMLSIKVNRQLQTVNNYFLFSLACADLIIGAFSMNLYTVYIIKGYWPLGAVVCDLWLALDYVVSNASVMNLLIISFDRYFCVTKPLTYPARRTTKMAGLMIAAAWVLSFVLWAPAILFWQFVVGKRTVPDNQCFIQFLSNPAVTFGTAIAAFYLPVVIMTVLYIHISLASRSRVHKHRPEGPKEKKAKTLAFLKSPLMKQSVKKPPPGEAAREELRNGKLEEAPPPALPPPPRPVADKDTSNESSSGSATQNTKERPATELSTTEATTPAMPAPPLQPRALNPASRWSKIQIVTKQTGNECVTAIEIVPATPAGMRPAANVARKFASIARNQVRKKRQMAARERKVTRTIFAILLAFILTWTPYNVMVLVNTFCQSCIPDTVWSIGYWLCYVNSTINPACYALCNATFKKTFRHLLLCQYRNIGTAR
Experiment: mAChR M4 cell-based functional assay (calcium flux, antagonism of EC80 acetylcholine response, M4/Gqi5/CHO-K1 cells)
Conditions: for remaining activity at 30 µM: CHO-K1, % ACh maximum at 30 μM, read-out: Human M4 Emin; for pIC50: decrease of the response elicited by an EC80 concentration of acetylcholine, CHO-K1 cells, Gqi5; for Human M4 Emin: % ACh maximum at 30 μM
Experimental: Human or rat M4 cDNA, along with the chimeric G protein Gqi5, were transfected into Chinese hamster ovary (CHO-K1) cells purchased from the American Type Culture Collection using Lipofectamine2000. M4/Gqi5/CHO cells were grown in Ham's F-12 medium containing 10% heat-inactivated fetal bovine serum (FBS), 20 mM HEPES, 500 μg/mL G418 sulfate, and 200 μg/mL Hygromycin B.
For high throughput measurement of agonist-evoked increases in intracellular calcium, CHO-K1 cells stably expressing muscarinic receptors were plated in growth medium lacking G418 and hygromycin at 15,000 cells/20 μL/well in Greiner 384-well black-walled, tissue culture (TC)-treated, clear-bottom plates (VWR). Cells were incubated overnight at 37° C. and 5% CO2. The next day, cells were washed using an ELX 405 (BioTek) with assay buffer; the final volume was then aspirated to 20 μL. Next, 20 μL of a 2.3 μM stock of Fluo-4/acetoxymethyl ester (Invitrogen, Carlsbad, CA), prepared as a 2.3 mM stock in DMSO and mixed in a 1:1 ratio with 10% (w/v) Pluronic F-127 and diluted in assay buffer, was added to the wells and the cell plates were incubated for 50 min at 37° C. and 5% CO2. Dye was removed by washing with the ELX 405 and the final volume was aspirated to 20 μL. Compound master plates were formatted in a 10-point concentration-response curve (CRC) format (1:3 dilutions) in 100% DMSO with a starting concentration of 10 or 1 mM using a BRAVO liquid handler (Agilent). Test compound CRCs were then transferred to daughter plates (240 nL) using the Echo acoustic plate reformatter (Labcyte, Sunnyvale, CA) and then diluted into assay buffer (40 μL) to a 2× stock using a Thermo Fisher Combi (Thermo Fisher Scientific, Waltham, MA).
Calcium flux was measured using the Functional Drug Screening System (FDSS) 6000 or 7000 (Hamamatsu Corporation, Tokyo, Japan) as an increase in the fluorescent static ratio. Compounds were applied to cells (20 μL, 2×) using the automated system of the FDSS at 2 seconds into the protocol and the data were collected at 1 Hz. At 143 s, 10 μL of an EC20 concentration of the muscarinic receptor agonist acetylcholine was added (5×), followed by the addition of 12 μL of an EC80 concentration of acetylcholine at the 268 s time point (5×). Agonist activity was analyzed as a concentration-dependent increase in calcium mobilization upon compound addition. Positive allosteric modulator activity was analyzed as a concentration-dependent increase in the EC20 acetylcholine response. Antagonist activity was analyzed as a concentration-dependent decrease in the EC80 acetylcholine response; for the purposes of the tables herein, an IC50 (inhibitory concentration 50) was calculated as a concentration-dependent decrease of the response elicited by an EC80 concentration of acetylcholine. Concentration-response curves were generated using a four-parameter logistical equation in XLFit curve fitting software (IDBS, Bridgewater, NJ) for Excel (Microsoft, Redmond, WA) or Prism (GraphPad Software, Inc., San Diego, CA) or the Dotmatics software platform (Dotmatics, Bishop's Stortford, UK). […]
Compounds were synthesized as described above. Activity (IC50 and Emin) was determined in the mAChR M4 cell-based functional assay as described above and the data are shown in Table 2.

Row | Compound | remaining activity at 30 µM | pIC50 | Human M4 Emin
1 | [2H]C1([2H])CC(C([2H])([2H])N2C[C@H]3C[C@H](Nc4ccc(-c5cnccc5C(F)(F)F)nn4)C[C@@]3(C)C2)CC([2H])([2H])O1 (racemic) [Compound 27, (3aR,5S,6aS)-3a-methyl-2-((tetrahydro-2H-pyran-4-yl-2,2,6,6-d4)methyl-d2)-N-(6-(4-(trifluoromethyl)pyridin-3-yl)pyridazin-3-yl)octahydrocyclopenta[c]pyrrol-5-amine and (3aS,5R,6aR)-3a-methyl-2-((tetrahydro-2H-pyran-4-yl-2,2,6,6-d4)methyl-d2)-N-(6-(4-(trifluoromethyl)pyridin-3-yl)pyridazin-3-yl)octahydrocyclopenta[c]pyrrol-5-amine] | 3% | 8.49 | 
2 | [2H]C([2H])(N1C[C@H]2C[C@H](Nc3ccc(-c4cnccc4C(F)(F)F)nn3)C[C@H]2C1)[C@]12CCC[C@H]1OCC2 (racemic) [Compound 29, (3aR,5s,6aS)-2-(((3aR,6aR)-hexahydro-3aH-cyclopenta[b]furan-3a-yl)methyl-d2)-N-(6-(4-(trifluoromethyl)pyridin-3-yl)pyridazin-3-yl)octahydrocyclopenta[c]pyrrol-5-amine and (3aR,5s,6aS)-2-(((3aS,6aS)-hexahydro-3aH-cyclopenta[b]furan-3a-yl)methyl-d2)-N-(6-(4-(trifluoromethyl)pyridin-3-yl)pyridazin-3-yl)octahydrocyclopenta[c]pyrrol-5-amine] | 4% | 7.36 | 
3 | [2H]C([2H])(N1C[C@H]2C[C@H](Nc3ccc(-c4cnccc4C(F)(F)F)nn3)C[C@H]2C1)[C@@]12CCCCC[C@H]1OCC2 (racemic) [Compound 30, (3aR,5s,6aS)-2-(((3aS,8aR)-octabydro-3aH-cyclohepta[b]furan-3a-yl)methyl-d2)-N-(6-(4-(trifluoromethyl)pyridin-3-yl)pyridazin-3-yl)octahydrocyclopenta[c]pyrrol-5-amine and (3aR,5s,6aS)-2-(((3aR,8aS)-octahydro-3aH-cyclohepta[b]furan-3a-yl)methyl-d2)-N-(6-(4-(trifluoromethyl)pyridin-3-yl)pyridazin-3-yl)octahydrocyclopenta[c]pyrrol-5-amine] | 31% | 5.40 | 
4 | [2H]C([2H])(C1CCOCC1)N1C[C@@H]2C[C@@H](Nc3ccc(-c4cccnc4C(F)(F)F)nn3)C[C@]2(C)C1 (racemic) [Compound 56, (3aR,5S,6aS)-3a-methyl-2-((tetrahydro-2H-pyran-4-yl)methyl-d2)-N-(6-(2-(trifluoromethyl)pyridin-3-yl)pyridazin-3-yl)octahydrocyclopenta[c]pyrrol-5-amine and (3aS,5R,6aR)-3a-methyl-2-((tetrahydro-2H-pyran-4-yl)methyl-d2)-N-(6-(2-(trifluoromethyl)pyridin-3-yl)pyridazin-3-yl)octahydrocyclopenta[c]pyrrol-5-amine] | 2% | 8.72 | 
5 | [2H]C1([2H])CC(C([2H])([2H])N2C[C@H]3C[C@H](Nc4ccc(-c5cccnc5C(F)(F)F)nn4)C[C@@]3(C)C2)CC([2H])([2H])O1 (racemic) [Compound 57, (3aR,5S,6aS)-3a-methyl-2-((tetrahydro-2H-pyran-4-yl-2,2,6,6-d4)methyl-d2)-N-(6-(2-(trifluoromethyl)pyridin-3-yl)pyridazin-3-yl)octahydrocyclopenta[c]pyrrol-5-amine and (3aS,5R,6aR)-3a-methyl-2-((tetrahydro-2H-pyran-4-yl-2,2,6,6-d4)methyl-d2)-N-(6-(2-(trifluoromethyl)pyridin-3-yl)pyridazin-3-yl)octahydrocyclopenta[c]pyrrol-5-amine] | 3% | 8.82 | 
6 | [2H]C([2H])(C1CCOC(C)(C)C1)N1C[C@H]2C[C@H](Nc3ccc(-c4cnccc4C(F)(F)F)nn3)C[C@H]2C1 (single isomer, unassigned) [Compound 58] |  | 8.03 | 3%
7 | [2H]C([2H])(C1CCOC(C)(C)C1)N1C[C@H]2C[C@H](Nc3ccc(-c4cnccc4C(F)(F)F)nn3)C[C@H]2C1 (single isomer, unassigned) [Compound 59] |  | 9.00 | 3%
8 | FC(F)(F)c1ccncc1-c1ccc(N[C@H]2C[C@@H]3CN(CC4CCOCC4)C[C@@H]3C2)nn1 [Compound 1, (3aR,5s,6aS)-2-((tetrahydro-2H-pyran-4-yl)methyl)-N-(6-(4-(trifluoromethyl)pyridin-3-yl)pyridazin-3-yl)octahydrocyclopenta[c]pyrrol-5-amine] | 4% | 9.55 | 
9 | [2H]C([2H])(C1CCOCC1)N1C[C@H]2C[C@H](Nc3ccc(-c4cnccc4C(F)(F)F)nn3)C[C@H]2C1 [Compound 2, (3aR,5s,6aS)-2-((tetrahydro-2H-pyran-4-yl)methyl-d2)-N-(6-(4-(trifluoromethyl)pyridin-3-yl)pyridazin-3-yl)octahydrocyclopenta[c]pyrrol-5-amine] | 3% | 9.39 | 
10 | [2H]C([2H])(C1CCOCC1(C)C)N1C[C@H]2C[C@H](Nc3ccc(-c4cnccc4C(F)(F)F)nn3)C[C@H]2C1 (stereo partly drawn) [Compound 3, (3aR,5s,6aS)-2-((3,3-dimethyltetrahydro-2H-pyran-4-yl)methyl-d2)-N-(6-(4-(trifluoromethyl)pyridin-3-yl)pyridazin-3-yl)octahydrocyclopenta[c]pyrrol-5-amine] | 2% | 8.34 | 
11 | [2H]C([2H])(N1C[C@H]2C[C@H](Nc3ccc(-c4cnccc4C(F)(F)F)nn3)C[C@H]2C1)C1(C)CCOCC1 [Compound 4, (3aR,5s,6aS)-2-((4-methyltetrahydro-2H-pyran-4-yl)methyl-d2)-N-(6-(4-(trifluoromethyl)pyridin-3-yl)pyridazin-3-yl)octahydrocyclopenta[c]pyrrol-5-amine] | 2% | 7.82 | 
12 | [2H]C([2H])([C@H]1COCCO1)N1C[C@H]2C[C@H](Nc3ccc(-c4cnccc4C(F)(F)F)nn3)C[C@H]2C1 [Compound 5, (3aR,5s,6aS)-2-(((S)-1,4-dioxan-2-yl)methyl-d2)-N-(6-(4-(trifluoromethyl)pyridin-3-yl)pyridazin-3-yl)octahydrocyclopenta[c]pyrrol-5-amine] | 2% | 9.04 | 
13 | [2H]C([2H])([C@@H]1COCCO1)N1C[C@H]2C[C@H](Nc3ccc(-c4cnccc4C(F)(F)F)nn3)C[C@H]2C1 [Compound 6, (3aR,5s,6aS)-2-(((R)-1,4-dioxan-2-yl)methyl-d2)-N-(6-(4-(trifluoromethyl)pyridin-3-yl)pyridazin-3-yl)octahydrocyclopenta[c]pyrrol-5-amine] | 3% | 7.48 | 
